# Laboratory results: patent US20130281313A1, “PROGNOSTIC AND/OR PREDICTIVE BIOMARKERS AND BIOLOGICAL APPLICATIONS THEREOF” (INSTITUT GUSTAVE ROUSSY, priority 2010, published 2013)
# Key:
# [1] = test system: TP53 (phospho-Ser15, phospho-Ser46), caspase-3, caspase-9; experiment: Immunoblotting of the intrinsic apoptosis pathway; assay type: cell-based, human; settings: A549 cells, sub-apoptotic (25 μM) CDDP in the presence of PN
# Procedure: For the preparation of total protein extracts A549 cells were washed with cold PBS and lysed in a buffer containing 1% NP40, 20 mM HEPES (pH 7.9), 10 mM KCl, 1 mM EDTA, 10% glycerol, 1 mM orthovanadate, 1 mM PMSF, 1 mM dithiothreitol, 10 μg/mL aprotinin, 10 μg/mL leupeptin, and 10 μg/mL pepstatin, according to established protocols {Zermati, 2007}. […]
# A549 cells = experiment: Cytofluorometric assessment of cell death (DiOC6(3)/PI co-staining); assay type: cell-based, human
structure (smiles),measurement,setting,value
"Cc1ncc(CO)c(CO)c1O [PN, pyridoxine]",activating phosphorylation of TP53 on serines 15 and 46,[1],an increased activating phosphorylation of TP53 on serines 15 and 46
same,activation of caspases-3 and -9,[1],an increased activation of caspases-3 and -9
same,CDDP-induced cell death upon acute addition of the vitamer (DiOC6(3)/PI co-staining),"A549 cells; A549 cells, 25 μM CDDP, co-treated for 48 h",exacerbated CDDP-induced cell death
same,effects of PN on CDDP-induced cell death upon PDXK depletion,"A549 cells; siPDXK-transfected A549 cells, CDDP",lost upon PDXK depletion
